In US20110015264A1 (priority 2006, published 2011):
Read-outs that look alike come from different tables or passages of the source.

Columns and labels:
[1] = biological target: N9 neuraminidase (Influenza A virus, UniProt P03472); format: binding, A/H1N9 (NWS/G70) avian virus
[2] = biological target: neuraminidase enzyme N9 from H1N9 virus (Influenza A virus, UniProt P03472); assay: biochemical; set-up: species or system A/H1N9 (NWS/G70) avian virus; conditions: for IC90: read-out: IC90 against N9 enzyme
Sequence of neuraminidase enzyme N9 from H1N9 virus (P03472 whole entry, looked up): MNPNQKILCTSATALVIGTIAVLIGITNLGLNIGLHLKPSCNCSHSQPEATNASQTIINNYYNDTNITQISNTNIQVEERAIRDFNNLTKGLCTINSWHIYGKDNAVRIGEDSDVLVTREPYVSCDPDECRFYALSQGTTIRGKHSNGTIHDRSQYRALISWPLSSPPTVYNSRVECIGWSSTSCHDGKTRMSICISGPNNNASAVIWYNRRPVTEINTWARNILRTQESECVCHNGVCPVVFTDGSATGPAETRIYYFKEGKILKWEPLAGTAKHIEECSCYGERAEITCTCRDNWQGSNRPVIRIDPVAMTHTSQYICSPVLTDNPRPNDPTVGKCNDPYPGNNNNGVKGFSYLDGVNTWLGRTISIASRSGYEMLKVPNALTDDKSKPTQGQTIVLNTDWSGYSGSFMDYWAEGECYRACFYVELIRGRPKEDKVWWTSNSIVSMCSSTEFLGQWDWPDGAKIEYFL

[3] = tested on: A/Victoria/3/75 (H3N2) influenza virus; set-up: species or system BALB/c mice; conditions: mouse, in vivo
[4] = biological target: H1N1 neuraminidase (UniProt P03470); conditions: read-out: IC50 against H1N1; Bantia et al. 2001; cited from earlier work
Sequence of H1N1 neuraminidase (P03470 whole entry, looked up): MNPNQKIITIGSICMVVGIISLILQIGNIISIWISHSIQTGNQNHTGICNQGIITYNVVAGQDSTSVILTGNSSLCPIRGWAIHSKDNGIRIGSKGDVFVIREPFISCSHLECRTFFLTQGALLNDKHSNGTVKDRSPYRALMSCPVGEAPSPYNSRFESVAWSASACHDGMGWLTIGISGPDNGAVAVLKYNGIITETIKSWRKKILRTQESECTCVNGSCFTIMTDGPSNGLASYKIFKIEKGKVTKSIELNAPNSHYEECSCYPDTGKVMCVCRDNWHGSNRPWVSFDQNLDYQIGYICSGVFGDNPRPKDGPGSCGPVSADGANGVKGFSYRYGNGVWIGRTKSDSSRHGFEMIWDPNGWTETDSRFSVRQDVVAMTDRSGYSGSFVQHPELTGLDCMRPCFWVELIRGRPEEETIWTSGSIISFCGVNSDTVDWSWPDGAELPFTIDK

[5] = tested on: influenza virus; set-up: species or system BALB/c mice; conditions: mouse, in vivo
[6] = tested on: influenza; conditions: human, in vivo, po; cited from earlier work
[7] = tested on: A/NWS/33 (H1N1) influenza virus; conditions: mouse, in vivo

Sequence of N9 neuraminidase (P03472 whole entry, looked up): as the sequence (P03472 whole entry, looked up) above

## CC(=O)N[C@H]1[C@H]([C@H](O)[C@H](O)CO)OC(C(=O)O)=C[C@@H]1N=C(N)N [zanamivir, reference compound]
[1]
  t1/2 of dissociation from N9 neuraminidase: 1.25 h
[2]
  IC90: 10 nM

## CCC(CC)C(NC(C)=O)[C@@H]1[C@H](O)[C@@H](C(=O)O)C[C@H]1NC(=N)N (stereo partly drawn) [peramivir, (1S,2S,3R,4R)-3-(1-Acetamido-2-ethylbutyl)-4-guanidino-2-hydroxycyclopentane-carboxylic acid]
[1]
  t1/2 of dissociation from N9 neuraminidase: > 24 h
[3]
  mean weight loss by day 8: 4.5 g
  mean weight loss by day 8, % of weight: 25%
  survived (protection against lethality): 9/10
[4]
  IC50: 0.11 nM
[2]
  IC50: 1.3 ± 0.4 nM
  IC90: 5 nM
[5]
  effectiveness of delayed treatment: highly effective
  protection against lethality: complete protection against lethality
  weight loss by day 5: no significant weight loss
[5]; po
  weight loss by day 5: no significant weight loss
[6]
  inhibitory effect on influenza in humans: undesirably low inhibitory effect
[7]
  prevention of weight loss in infected mice: effective in preventing weight loss
  survival: 40%
  survival rate: 50%
[7]; 1 mg/kg
  effectiveness in terms of survival: not effective
  mean days to death: significant increase
[7]; 10 mg/kg
  weight loss and mortality: significantly reduced
  weight loss by day 5: no weight loss
  weight loss, % of initial weight: about 1.7 % of initial weight
[7]; 20 mg/kg
  signs of drug-related toxicity: No signs of drug-related toxicity
[7]; po, 1 mg/kg/day
  survival: 60%
[7]; po, 10 mg/kg
  weight loss by day 5: 0.22 g
[7]; po, 10 mg/kg/day
  protection against lethality: Complete protection against lethality

## CCOC(=O)C1=C[C@@H](OC(CC)CC)[C@H](NC(C)=O)[C@@H](N)C1 [oseltamivir, reference compound]
[3]; po
  mean weight loss by day 8: about 5.1 g
  mean weight loss by day 8, % of weight: 28%
  survived (protection against lethality): 9/10
[7]
  survival rate: 10%
[7]; 10 mg/kg
  mice survived: 3 out of 10
  protection against lethality: 30%
  weight loss: about 4 g
  weight loss and mortality: no efficacy
  weight loss, % of initial weight: 25 % of initial weight
[7]; po, 2 mg/kg/day
  greatest mean weight loss at day 8: 1.34 g
[7]; po, 10 mg/kg/day
  greatest mean weight loss at day 8: 0 g
